From patent US20020022586A1, “Method for treating a patient with neoplasia by treatment with a pyrimidine analog” (priority 1998, published 2002)
Like-named read-outs stand apart in the source and are kept apart here. Values belong to the compound of their own block, whether it stands above or below them.

Tests used:
HT-29 cells [1] = assay: cAMP levels in cultured HT-29 cells by radioimmunoassay; type: cell-based, human; settings: HT-29 cells treated 30 minutes
Source text: It has been observed that a compound which is useful in the practice of this invention (i.e., one that selectively induces apoptosis in neoplastic cells, but not substantially in normal cells) follows a time course consistent with cGMP-specific PDE inhibition. […] The intracellular targets of these drug actions are being studied further, but current data support the concept that the initial rise in cGMP content and the subsequent fall in cAMP content precede apoptosis in neoplastic cells exposed to test compounds useful in this invention. To determine the cyclic AMP content in cell extracts, radioimmunoassay techniques similar to those described above for cGMP are used.

[2] = system: PDE peak B (novel cGMP-specific PDE); assay: cGMP hydrolysis by PDE peak B isolated from SW-480 cells; type: biochemical, human; settings: 0.25 μM 3H-cGMP
HT-29 cells [3] = assay: HT-29 tumor cell growth inhibition, SRB assay; type: cell-based, human; parameters: Growth Inhibition: key to the marks not given beside the values; settings: for Growth inhibitory activity, % Inhibition at 100 μM / inhibition at 100 µM: 100 μM single dose; for IC50 / inhibition at 100 µM: Homo sapiens; for IC50: SRB assay; for inhibition at 100 µM: HT-29, read-out: Growth inhibitory activity, % Inhibition at 100 μM
COX = COX inhibition; type: biochemical
HT-29 cells [4] = assay: Apoptosis by DNA fragmentation assay in HT-29 cells; type: cell-based, human
[5] = system: premalignant lesions in mouse mammary gland organ culture; assay: Mammary gland organ culture model; type: cell-based; settings: for Mammary Gland Organ Culture: activity profile; for inhibition of premalignant lesions: mammary gland organ culture; on mammary gland organ culture: key: −: Not active; +: Slightly active; ++: Moderately active; +++: Strongly active; ++++: Highly active
Experimental: For example, female BALB/c mice can be treated with a combination of estradiol and progesterone daily, in order to prime the glands to be responsive to hormones in vitro. The animals are sacrificed and thoracic mammary glands are excised aseptically and incubated for ten days in growth media supplemented with insulin, prolactin, hydrocortisone, and aldosterone. DMBA (7,12-dimethylbenz(a)anthracene) is added to medium to induce the formation of premalignant lesions. Fully developed glands are then deprived of prolactin, hydrocortisone, and aldosterone, resulting in the regression of the glands but not the premalignant lesions.
The test compound is dissolved in DMSO and added to the culture media for the duration of the culture period. At the end of the culture period, the glands are fixed in 10% formalin, stained with alum carmine, and mounted on glass slides. The extent of the area occupied by the mammary lesions can be quantitated by projecting an image of the gland onto a digitation pad. The area covered by the gland is traced on the pad and considered as 100% of the area. The space covered by each of the unregressed structures is also outlined on the digitization pad and quantitated by the computer.
The incidence of forming mammary lesions is the ratio of the glands with mammary lesions to […]. The incidence of mammary lesions in test compound treated glands is compared with that of the untreated glands.
Mammary gland organ culture experiments were performed as previously described (Mehta and Moon, Cancer Research, 46: 5832-5835, 1986). […] The data support the hypothesis that cyclooxygenase inhibition is not necessary for the anti-neoplastic properties of desired compounds.

cGMP-PDE = system: T1, cGMP-PDE; assay: cGMP-PDE inhibition assay, enzyme from HT-29 tumor cells; type: biochemical, human; settings: 100 μM
T1 construct: other: 10 μM; other: 100 μM; other: enzyme from HT-29 cells; other: 20 μM

PDE peak A (PDE5) = molecular target: T2, PDE peak A (PDE5) (Homo sapiens, UniProt O76074); assay: cGMP hydrolysis by PDE peak A isolated from SW-480 cells; type: biochemical
T2 construct: SW-480 cells are collected and homogenized; endogenous in cells; host or cells: SW-480 human colon adenocarcinoma cells; supernatant of homogenate fractionated on DEAE-Trisacryl M

HT-29, Colon = assay: Growth inhibition of various cell lines (Table 5); type: cell-based; settings: Homo sapiens
DU-145 = assay: Growth inhibition of various cell lines (Table 5); type: cell-based; settings: Homo sapiens
Experimental: (§1) To show the effectiveness of cGMP-specific PDE inhibition on various forms of neoplasia, compounds were tested on numerous cell lines. […] The IC50 values were determined by the SRB assay. […] Therefore, compounds selected for cGMP-specific PDE inhibition in combination with a pyrimidine analog should be useful for treating neoplasia, in particular breast, colorectal and pancreatic cancers.

MDA-MB-435 = assay: Growth inhibition of various cell lines (Table 5); type: cell-based; settings: Homo sapiens
Experimental: as §1

HCT-15 = assay: Growth inhibition of various cell lines (Table 5); type: cell-based; settings: Homo sapiens
Experimental: as §1

HT-29 cells [6] = assay: Apoptosis and necrosis by morphology (acridine orange/ethidium bromide) in HT-29 cells; type: cell-based, human
Source text: Following treatment with a test compound, cultures can be assayed for apoptosis and necrosis by fluorescent microscopy following labeling with acridine orange and ethidium bromide. The method for measuring apoptotic cell number has previously been described by Duke & Cohen, “Morphological And Biochemical Assays Of Apoptosis,” Current Protocols In Immunology, Coligan et al., eds., 3.17.1-3.17.16 (1992, which is incorporated herein by reference).
For example, floating and attached cells can be collected, and aliquots of cells can be centrifuged. The cell pellet can then be resuspended in media and a dye mixture containing acridine orange and ethidium bromide. The mixture can then be examined microscopically for morphological features of apoptosis.
Reference compounds and test compounds were analyzed for their cGMP-specific PDE inhibitory activity in accordance with the protocols for the assay, supra. […] Apoptotic and necrotic cell death was determined as previously described (Duke and Cohen, In: Current Protocols in Immunology, 3.17.1-3.17.16, New York, John Wiley and Sons, 1992). […] All data were collected from the same experiment.
The apoptosis inducing activity for a series of phosphodiesterase inhibitors was determined. HT-29 cell were treated for 6 days with various inhibitors of phosphodiesterase. Apoptosis and necrosis were determined morphologically after acridine orange and ethidium bromide labeling in accordance with the assay described, supra.

[7] = Side effects of exisulind on administration; type: in vivo
Source text: This effect is reversible, and liver enzymes return to normal levels when the administered dose of exisulind returns to the traditionally recommended level or when treatment is discontinued. The most serious side effect of pyrimidine analogs, on the other hand, is bone marrow suppression.

A-427, Lung = assay: Growth inhibition of various cell lines (Table 5); type: cell-based; settings: Homo sapiens
Experimental: as §1

[8] = system: Human Prostate Carcinoma PC3; assay: Growth inhibition of various cell lines (Table 5); type: cell-based
Experimental: as §1

HT-29 cells [9] = assay: HT-29 growth inhibition by counting viable cells after trypan blue staining; type: cell-based, human; settings: 120 μM, time course
Experimental: Growth inhibition (FIG. 9A, top) was measured by counting viable cells after trypan blue staining. Apoptosis (FIG. 9B, bottom) was measured by morphological determination following staining with acridine orange and ethidium bromide as described previously (Duke and Cohen, In: Current Protocols in Immunology, 3.17.1-3.17.16, New York, John Wiley and Sons, 1992). […] All data were collected from the same experiment.

MCF7/S, Breast = assay: Growth inhibition of various cell lines (Table 5); type: cell-based; settings: Homo sapiens, MCF7S
Experimental: as §1

HT-29 cells [10] = assay: cGMP levels in cultured HT-29 cells by radioimmunoassay; type: cell-based, human; settings: HT-29 cells treated 30 minutes
[11] = cGMP hydrolysis, 0.25 μM 3H-cGMP
[12] = 144 h, HT-29, 6 days, PDE inhibitors, read-out: Growth inhibition (IC50)

Compound: COc1ccc(C2CNC(=O)C2)cc1OC1CCCC1 (stereo not shown) [Rolipram]
effect on cAMP levels (HT-29 cells [1]): increased cAMP levels
IC50 [2]: > 100 µM

Compound: rac-threo-(E)-1-(N,N′-diethylaminoethanethio)-1-(butan-1′,4′-olido)-[3′,4′:1,2′]-6-fluoro-2-methyl-3-(p-methylsulfonylbenzylidene)-indan
Growth inhibitory activity, % Inhibition at 100 μM (HT-29 cells [3]): 68%
COX Inhibition (COX; activity profile): −
Apoptosis inducing activity, Fold induction at 100 μM (HT-29 cells [4]): <2.0 fold
Mammary Gland Organ Culture [5]: ++
cGMP PDE % Inhibition at 100 μM (cGMP-PDE): <25%

Compound: ribo-(E)-1-Triazolo-[2′,3′:1″,3″]-1-(butan-1′,4′-olido)-[3′,4′:1,2]-6-fluoro-2-methyl-3-(p-methylsulfonylbenzylidene)-indan [G]
COX Inhibition (COX; activity profile): −

IC50 (HT-29 cells [3]; HT-29, 144 h, six days, read-out: IC50 for growth inhibition of HT-29 cells): 0.04 µM
EC50 (HT-29 cells [4]; Homo sapiens, HT-29, 48 hours, DNA fragmentation, read-out: EC50 for apoptosis induction): 50 nM
IC50 (PDE peak A (PDE5); [11]): 0.38 µM
IC50 (HT-29, Colon): 0.1 µM
IC50 (DU-145): 0.1 µM
IC50 (MDA-MB-435): 0.04 µM
IC50 (HCT-15): 0.6 µM
IC50 [2]: 0.37 µM
Compound: COc1cc(/C=C2/C(C)=C(CC(=O)NCc3ccccc3)c3cc(F)ccc32)cc(OC)c1OC [Compound E, (Z)-5-Fluoro-2-methyl-1-(3,4,5-trimethoxybenzylidene)-3-indenylacetamide, N-benzyl]
inhibition at 100 µM (HT-29 cells [3]): 62%
Growth Inhibition (HT-29 cells [3]; activity profile): ++++
COX Inhibition (COX; 100 μM): did not inhibit COX
COX Inhibition (COX; activity profile): −
Mammary Gland Organ Culture [5]: ++++
cGMP PDE % Inhibition at 100 μM (cGMP-PDE): 75%

Compound: CCCCCC[C@@H]([C@@H](C)O)n1cnc2c(N)ncnc21 (racemic) [EHNA, reference compound]
Apoptosis inducing activity, Fold induction at 100 μM (HT-29 cells [4]): <2.0 fold
IC50 [2]: 3.7 µM

Compound: rac-(E)-1-(butan-1′,4′-olido)-[3′,4′:1,2]-6-fluoro-2-methyl-3-(p-methylsulfonylbenzylidene)-1 S-indanyl-glutathione)
COX Inhibition (COX; activity profile): −

Compound: CC1=C(CC(=O)O)c2cc(F)ccc2/C1=C/c1ccc([S+](C)[O-])cc1 (stereo not shown) [sulindac sulfoxide]
inhibition of premalignant lesions [5]: effectively inhibit the formation of premalignant lesions

Compound: Cc1[nH]c(=O)c(C#N)cc1-c1ccncc1 [Milrinone]
IC50 (HT-29 cells [3]; [12]): > 200 µM
% Apoptosis (HT-29 cells [6]; HT-29, 6 days, morphology): 18%
% Necrosis (HT-29 cells [6]; HT-29, 6 days, morphology): 0%

Compound: CC(=O)NC(CSC12CC(=O)OC1(C)/C(=C/c1ccc(S(C)(=O)=O)cc1)c1ccc(F)cc12)C(=O)O (racemic) [D, rac-(E)-1-(butan-1′,4′-olido)-[3′,4′:1,2]-6-fluoro-2-methyl-3-(p-methylsulfonylbenzylidene)-1S-indanyl-N-acetylcysteine]
Growth inhibitory activity, % Inhibition at 100 μM (HT-29 cells [3]): 78%
COX Inhibition (COX; activity profile): −

Compound: CC1=C(CC(=O)O)c2cc(F)ccc2/C1=C\c1ccc(Cl)cc1 [C, (Z)-5-Fluoro-2-methyl-1-(p-chlorobenzylidene)-3-acetic acid]
Growth inhibitory activity, % Inhibition at 100 μM (HT-29 cells [3]): 80%
cGMP PDE % Inhibition at 100 μM (cGMP-PDE): <25%

Compound: CCCc1nn(C)c2c(=O)[nH]c(-c3cc(S(=O)(=O)N4CCN(C)CC4)ccc3OCC)nc12 [Sildenafil, reference compound]
inhibition at 100 µM (HT-29 cells [3]): < 50%

Compound: Clc1cccc(Nc2nnc(-c3ccccc3)c3ccccc23)c1 [MY5445, reference compound]
COX Inhibition (COX; activity profile): ++++

IC50 (HT-29 cells [3]; [12]): > 100 µM
Compound: CCCOc1ccccc1-c1nc2nn[nH]c2c(=O)[nH]1 [Zaprinast, reference compound]
inhibition at 100 µM (HT-29 cells [3]): < 50%

Compound: CC1=C(CC(=O)N(C2CCCCC2)C2CCCCC2)c2cc(F)ccc2/C1=C\c1ccc(S(C)(=O)=O)cc1 [F, (Z)-5-Fluoro-2-methyl-1-(p-methylsulfonylbenzylidene)-3-indenylacetamide, N,N′-dicyclohexyl]
COX Inhibition (COX; activity profile): −

IC50 (PDE peak A (PDE5); [11]): 31 µM
IC50 [2]: > 100 µM
Compound: CC1(C)C(=O)Nc2ccc(C3=NNC(=O)CC3)cc21 [Indolidan]

IC50 (PDE peak A (PDE5); [11]): > 100 µM
IC50 [2]: > 100 µM
Compound: CCOC(=O)C1=C[C@]2(CC)CCCN3CCc4c(n1c1ccccc41)[C@@H]32 [Vinpocetine]

IC50 (HT-29, Colon): 120 µM
IC50 [8]: 82 µM
Compound: CC1=C(CC(=O)O)c2cc(F)ccc2/C1=C\c1ccc(S(C)(=O)=O)cc1 [Exisulind, (Z)-5-fluoro-2-methyl-1-[[4-(methylsulfonyl)phenyl]methylene]indene-3-yl acetic acid]
COX Inhibition (COX; activity profile): −
inhibition of premalignant lesions [5]: effectively inhibit the formation of premalignant lesions
side effects at recommended dose ([7]; 300-400 mg/day): no significant side effects
liver enzymes at doses higher than recommended ([7]; doses higher than the recommended therapeutic levels, reversible): elevated levels of liver enzymes
IC50 (A-427, Lung): 130 µM

Compound: O=C([O-])C1CCN(c2nc(NCc3ccc4c(c3)OCO4)c3cc(Cl)ccc3n2)CC1.[Na+] [Compound E4021, reference compound]
Growth inhibitory activity, % Inhibition at 100 μM (HT-29 cells [3]): <50%

Compound: CSc1ccc(/C=C2/C(C)=C(CC(=O)O)c3cc(F)ccc32)cc1 [Sulindac sulfide]
apoptosis by morphology (HT-29 cells [6]; 120 μM, time course): increase in apoptosis
COX Inhibition (COX; activity profile): ++++
Mammary Gland Organ Culture [5]: −
inhibition of premalignant lesions [5]: inactive
IC50 (PDE peak A (PDE5)): 50 µM
growth inhibition, viable cell count (HT-29 cells [9]): capable of inhibiting tumor cell growth
IC50 (MCF7/S, Breast): 30 µM
increase of cGMP levels (HT-29 cells [10]): greater than 50%
